Here are results for 24 compounds from patent US7541368B2, “Pyrazoles as inhibitors of tumor necrosis factor” (Aventis Pharmaceuticals Inc., priority 2003, dated 2009).

For the first assay, the target named is T1, Inactive N-terminal His6 tagged murine P38 (Mus musculus, UniProt P47811).
T1 construct: His6 (N); made in house
T1 sequence (P47811 whole entry): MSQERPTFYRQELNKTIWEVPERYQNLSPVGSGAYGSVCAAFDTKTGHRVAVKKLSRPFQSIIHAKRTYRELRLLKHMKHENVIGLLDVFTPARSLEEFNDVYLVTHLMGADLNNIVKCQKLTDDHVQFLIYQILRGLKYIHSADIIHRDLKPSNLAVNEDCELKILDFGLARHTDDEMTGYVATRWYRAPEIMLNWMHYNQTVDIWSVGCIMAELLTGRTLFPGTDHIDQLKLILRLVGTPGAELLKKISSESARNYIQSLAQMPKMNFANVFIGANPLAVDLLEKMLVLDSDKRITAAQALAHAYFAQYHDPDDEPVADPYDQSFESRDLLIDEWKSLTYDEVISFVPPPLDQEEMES
In words: p38 cascade assay (HTRF; inactive p38 activated by MKK-6, ATF-2 phosphorylation). Conditions: inactive p38 preincubated with compound, then MKK-6, ATF-2, ATP; read-out: 50% inhibition in the p38 cascade assay at concentrations within the range. It counts as biochemical. The protocol:
The homogeneous time resolved fluorescence method (HTRF) assay measured the phosphorylation of human activating transcription factor (ATF)-2 protein by P38 following activation by MKK-6 and was run in A384 well plate format. […] MBP-tagged mouse MKK-6 (final concentration 50 nM), GST-tagged ATF-2 (fmal concentration 200 nM) and ATP (final concentration 50 μM) were then added and the incubation continued for 90 min. p38, MKK-6 and ATF-2 were prepared in the Protein Production Group, Aventis Pharmaceuticals. XL665 labeled anti-GST antibody (Cis Bio International) and cryptate labeled anti-pbospho-ATF2 antibody (Cis Bio International) were then added to generate the specific signal proportional to the phosphorylation of the substrate. The close proximity of XL665 labeled anti-GST antibody/phosphorylated GST-ATF2 complex and the cryptate labeled anti-phospho-ATF2 antibody results in a fluorescence transfer from cryptate to XL665. The resulting fluorescence signal was than read on a LJL Acquest set at multi-method mode using a fluorescence filter set (E=360 nm, Em=615/665 nm) with UV dichroic mirror (Integration time: 300000 μs). The results are reported as IC50 values. Compounds were tested over the concentration range of 3×10^−10M to 3×10^−5M.
(In TR-FRET formats the signal depends on donor and acceptor labels being close together.)
Turning to `Cc1ccc(-n2nc(C(C)(C)C)cc2NC(=O)Nc2ccc(CC3CCN(C(=O)c4nccnc4N)CC3)cc2)cc1` [Compound A283, 1-{4-[1-(3-Amino-pyrazine-2-carbonyl)-piperidin-4-ylmethyl]-phenyl}-3-(5-tert-butyl-2-p-tolyl-2H-pyrazol-3-yl)-urea], the IC50 was 10 to 100 nM.

As for `COCC(=O)N1CCC(Cc2ccc(NC(=O)Nc3cc(C(C)(C)C)nn3-c3ccc(C)cc3)cc2)CC1` [Compound A367, 1-(5-tert-Butyl-2-p-tolyl-2H-pyrazol-3-yl)-3-{4-[1-(2-methoxy-acetyl)-piperidin-4-ylmethyl]-phenyl}-urea], the IC50 fell in the range of 10 to 100 nM. On the same count and under the same terms, then `CC(=O)Nc1cccc(C(=O)N2C3CCC2CC(Cc2cccc(NC(=O)Nc4cc(C(C)(C)C)nn4-c4ccc(C)cc4)c2)C3)c1` (centres unmarked) [Compound A707, N-[3-(3-{3-[3-(5-tert-Butyl-2-p-tolyl-2H-pyrazol-3-yl)-ureido]-benzyl}-8-aza-bicyclo[3.2.1]octane-8-carbonyl)-phenyl]-acetamide], with 10 to 100 nM; and `Cc1ccc(-n2nc(C(C)(C)C)cc2NC(=O)Nc2cccc(CC3CCN(C(=O)C4CCNCC4)CC3)c2)cc1` [Compound A1639, 1-(5-tert-Butyl-2-p-tolyl-2H-pyrazol-3-yl)-3-{3-[1-(piperidine-4-carbonyl)-piperidin-4-ylmethyl]-phenyl}-urea], with 10 to 100 nM.

Regarding `Cc1ccc(-n2nc(C(C)(C)C)cc2NC(=O)Nc2ccc(CC3CCN(C(=O)O[C@@H]4C[C@H](C)CC[C@H]4C(C)C)CC3)cc2)cc1` [Compound A1644, 4-{4-[3-(5-tert-Butyl-2-p-tolyl-2H-pyrazol-3-yl)-ureido]-benzyl}-piperidin-1-carboxylic acid (1R,2S,5R)-2-isopropyl-5-methyl-cyclohexyl ester], the IC50 lay within 10 to 100 nM. On the same count and under the same terms, then `CC(=O)N1CCC(Cc2ccc(NC(=O)Nc3cc(C(C)(C)C)nn3-c3ccc(C)cc3)cc2)CC1` [Compound A1637, 1-[4-(1-acetyl-piperidin-4-ylmethyl)-phenyl]-3-(5-tert-butyl-2-p-tolyl-2H-pyrazol-3-yl)-urea], with 10 to 100 nM; and `Cc1ccc(-n2nc(C(C)(C)C)cc2NC(=O)Nc2cccc(CC3CCN(C(=O)c4cc5ccccc5o4)CC3)c2)cc1` [Compound A1638, 1-{3-[1-(benzofuran-2-carbonyl)-piperidin-4-ylmethyl]-phenyl}-3-(5-tert-butyl-2-p-tolyl-2H-pyrazol-3-yl)-urea], with 10 to 100 nM; and `CC(=O)C(=CC(=O)c1ccccc1)NC(=O)N1CCC(Cc2ccc(NC(=O)Nc3cc(C(C)(C)C)nn3-c3ccc(C)cc3)cc2)CC1` [Compound A1641, 4-{4-[3-(5-tert-Butyl-2-p-tolyl-2H-pyrazol-3-yl)-ureido]-benzyl}-piperidine-1-carboxylic acid (1-acetyl-3-oxo-3-phenyl-propenyl)-amide], with 10 to 100 nM. The same measure, in the same setting: then `COc1ccc(OC(=O)N2CCC(Cc3ccc(NC(=O)Nc4cc(C(C)(C)C)nn4-c4ccc(C)cc4)cc3)CC2)cc1` [Compound A1605, 4-{4-[3-(5-tert-Butyl-2-p-tolyl-2H-pyrazol-3-yl)-ureido]-benzyl}-piperidine-1-carboxylic acid 4-methoxy-phenyl ester], with 10 to 100 nM; and `Cc1ccc(-n2nc(C(C)(C)C)cc2NC(=O)Nc2ccc(CC3CCN(C(=O)c4coc5c4C(=O)CCC5)CC3)cc2)cc1` [Compound A342, 1-(5-tert-Butyl-2-p-tolyl-2H-pyrazol-3-yl)-3-{4-[1-(4-oxo-4,5,6,7-tetrahydro-benzofuran-3-carbonyl)-piperidin-4-ylmethyl]-phenyl}-urea], with 10 to 100 nM; and `Cc1ccc(-n2nc(C(C)(C)C)cc2NC(=O)Nc2cccc(CC3CC4CCC(C3)N4S(=O)(=O)c3ccc4c(c3)OCCN4C)c2)cc1` (centres unmarked) [Compound A880, 1-(5-tert-Butyl-2-p-tolyl-2H-pyrazol-3-yl)-3-{3-[8-(4-methyl-3,4-dihydro-2H-benzo[1,4]oxazine-7-sulfonyl)-8-aza-bicyclo[3.2.1]oct-3-ylmethyl]-phenyl}-urea], with 10 to 100 nM. Take `Cc1ccc(-n2nc(C(C)(C)C)cc2NC(=O)Nc2ccc(CC3CCN(C(=O)c4ccc(O)nc4)CC3)cc2)cc1` [Compound A333, 1-(5-tert-Butyl-2-p-tolyl-2H-pyrazol-3-yl)-3-{4-[1-(6-hydroxy-pyridine-3-carbonyl)-piperidin-4-ylmethyl]-phenyl}-urea]: the IC50 lay in the range of 10 to 100 nM. Still for that read-out and setting: then `Cc1ccc(-n2nc(C(C)(C)C)cc2NC(=O)Nc2ccc(CC3CC4CCC(C3)N4C(=O)c3cccc(C)n3)cc2)cc1` (centres unmarked) [Compound A1640, 1-(5-tert-Butyl-2-p-tolyl-2H-pyrazol-3-yl)-3-{4-[8-(6-methyl-pyridine-2-carbonyl)-8-aza-bicyclo[3.2.1]oct-3-ylmethyl]-phenyl}-urea], with 10 to 100 nM; and `COC(=O)CCC(=O)N1CCC(Cc2cccc(NC(=O)Nc3cc(C(C)(C)C)nn3-c3ccc(C)cc3)c2)CC1` [Compound A174, 4-(4-{3-[3-(5-tert-Butyl-2-p-tolyl-2H-pyrazol-3-yl)-ureido]-benzyl}-piperidin-1-yl)-4-oxo-butyric acid methyl ester], with 10 to 100 nM.

A further assay deals with TNF-alpha release in THP-1 cells. Nature of the assay: LPS-induced TNF-alpha release in THP-1 cells. It is filed as cell-based. Conditions: Homo sapiens, THP-1, LPS-stimulated THP-1 cells; read-out: 50% inhibition in the LPS-induced TNF-alpha release in THP-1 cells assay at concentrations within the range. The essentials: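 Undifferentiated THP-1 monocytes (1×10^6 cells/ml, 1% FCS) preincubated 1 h at 37° C with compound (1×10^−9 to 1×10^−6 M, 0.3% DMSO), then stimulated with LPS (20 μg/ml) for 18 h. Supernatant TNF-alpha measured by sandwich ELISA (TMB read-out), interpolated from a log/log standard curve (0.125-16 ng/ml).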
With `Cc1ccc(-n2nc(C(C)(C)C)cc2NC(=O)Nc2ccc(CC3CCN(C(=O)c4nccnc4N)CC3)cc2)cc1` [Compound A283, 1-{4-[1-(3-Amino-pyrazine-2-carbonyl)-piperidin-4-ylmethyl]-phenyl}-3-(5-tert-butyl-2-p-tolyl-2H-pyrazol-3-yl)-urea], the IC50 was 10 to 500 nM. On the same count and under the same terms, then `COCC(=O)N1CCC(Cc2ccc(NC(=O)Nc3cc(C(C)(C)C)nn3-c3ccc(C)cc3)cc2)CC1` [Compound A367, 1-(5-tert-Butyl-2-p-tolyl-2H-pyrazol-3-yl)-3-{4-[1-(2-methoxy-acetyl)-piperidin-4-ylmethyl]-phenyl}-urea], with 10 to 500 nM.

Take `Cc1ccc(-n2nc(C(C)(C)C)cc2NC(=O)Nc2ccc(CC3CCN(C(=O)c4cnc5ccccc5c4)CC3)cc2)cc1` [Compound A384, 1-(5-tert-Butyl-2-p-tolyl-2H-pyrazol-3-yl)-3-{4-[1-(quinoline-3-carbonyl)-piperidin-4-ylmethyl]-phenyl}-urea]: the IC50 was in the range of 10 to 500 nM. Take `Cc1ccc(-n2nc(C(C)(C)C)cc2NC(=O)Nc2ccc(CC3CCN(C(=O)c4ccc(N)nc4)CC3)cc2)cc1` [Compound A331A, 1-{4-[1-(6-Amino-pyridine-3-carbonyl)-piperidin-4-ylmethyl]-phenyl}-3-(5-tert-butyl-2-p-tolyl-2H-pyrazol-3-yl)-urea]: the IC50 was in the range of 10 to 500 nM.

Consider `COc1cccc(C(=O)N2C3CCC2CC(Cc2cccc(NC(=O)Nc4cc(C(C)(C)C)nn4-c4ccc(C)cc4)c2)C3)c1OC` (centres unmarked) [Compound A786, 1-(5-tert-Butyl-2-p-tolyl-2H-pyrazol-3-yl)-3-{3-[8-(2,3-dimethoxy-benzoyl)-8-aza-bicyclo[3.2.1]oct-3-ylmethyl]-phenyl}-urea], for which the IC50 fell in the range of 10 to 500 nM.

Turning to `Cc1ccc(-n2nc(C(C)(C)C)cc2NC(=O)Nc2cccc(CC3CC4CCC(C3)N4C(=O)Cc3cn(C)c4ccccc34)c2)cc1` (centres unmarked) [Compound A641, 1-(5-tert-Butyl-2-p-tolyl-2H-pyrazol-3-yl)-3-(3-{8-[2-(1-methyl-1H-indol-3-yl)-acetyl]-8-aza-bicyclo[3.2.1]oct-3-ylmethyl}-phenyl)-urea], the IC50 fell in the range of 10 to 500 nM. The same measure, in the same setting: then `Cc1ccc(-n2nc(C(C)(C)C)cc2NC(=O)Nc2cccc(CC3CCN(C(=O)c4ccoc4C)CC3)c2)cc1` [Compound A52, 1-(5-tert-Butyl-2-p-tolyl-2H-pyrazol-3-yl)-3-{3-[1-(2-methyl-furan-3-carbonyl)-piperidin-4-ylmethyl]-phenyl}-urea], with 10 to 500 nM. For `Cc1ccc(-n2nc(C(C)(C)C)cc2NC(=O)Nc2cccc(CC3CCN(C(=O)c4occc4C)CC3)c2)cc1` [Compound A95, 1-(5-tert-Butyl-2-p-tolyl-2H-pyrazol-3-yl)-3-{3-[1-(3-methyl-furan-2-carbonyl)-piperidin-4-ylmethyl]-phenyl}-urea], the IC50 lay within 10 to 500 nM. As for `Cc1ccc(-n2nc(C(C)(C)C)cc2NC(=O)Nc2ccc(CC3CCN(C(=O)c4cccnc4N)CC3)cc2)cc1` [Compound A231, 1-{4-[1-(2-Amino-pyridine-3-carbonyl)-piperidin-4-ylmethyl]-phenyl}-3-(5-tert-butyl-2-p-tolyl-2H-pyrazol-3-yl)-urea], the IC50 was in the range of 10 to 500 nM. Still for that read-out and setting: then `Cc1ccc(-n2nc(C(C)(C)C)cc2NC(=O)Nc2ccc(CC3CCN(C(=O)Cc4ccc5c(c4)OCO5)CC3)cc2)cc1` [Compound A263, 1-{4-[1-(2-Benzo[1,3]dioxol-5-yl-acetyl)-piperidin-4-ylmethyl]-phenyl}-3-(5-tert-butyl-2-p-tolyl-2H-pyrazol-3-yl)-urea], with 10 to 500 nM. Still for that read-out and setting: then `Cc1ccc(-n2nc(C(C)(C)C)cc2NC(=O)Nc2cccc(CC3CCN(C(=O)CCc4cccs4)CC3)c2)cc1` [Compound A83, 1-(5-tert-Butyl-2-p-tolyl-2H-pyrazol-3-yl)-3-{3-[1-(3-thiophen-2-yl-propionyl)-piperidin-4-ylmethyl]-phenyl}-urea], with 10 to 500 nM; and `Cc1ccc(-n2nc(C(C)(C)C)cc2NC(=O)Nc2cccc(CC3CCN(C(=O)c4ccsc4)CC3)c2)cc1` [Compound A99, 1-(5-tert-Butyl-2-p-tolyl-2H-pyrazol-3-yl)-3-{3-[1-(thiophene-3-carbonyl)-piperidin-4-ylmethyl]-phenyl}-urea], with 10 to 500 nM.
